Assay results: patent publication US12427134B2, “Methods of reducing the risk of cardiovascular events in a subject with atrial fibrillation and/or atrial flutter” (priority 2019, dated 2025)

System: hypertriglyceridemic patients with cardiovascular disease or at high risk for cardiovascular disease
Assay: REDUCE-IT: primary and key secondary endpoints adjusted for baseline covariates (stepwise selection) and time varying post-baseline lipids
Format: in vivo, human
Details: ITT
Description: The primary efficacy analysis was performed on the ITT population. A sensitivity analysis was performed using the mITT and PP populations. As a sensitivity analysis, patients who discontinued study drug prematurely were censored for the primary composite endpoint analysis on the date of drug discontinuation. The primary analysis was repeated using this censoring rule for the mITT population. As a supportive analysis, a multivariable, stratified Cox proportional hazards model was constructed for the primary endpoint to evaluate the treatment effect adjusting for important covariates.
As an additional exploratory analysis, the relationship between post-baseline biomarker values and treatment effects with the primary and key secondary endpoints were assessed by adding biomarker values (for example, at 4 months, or at 1 year, etc.) as time-dependent covariates in the Cox proportional hazards model. Diagnostic plots for the proportional hazard's assumption was evaluated. Weight was measured at the screening visit and at all follow-up visits, including the last visit of the study. Waist circumference was measured at the randomization visit (Visit 2; Day 0), Visit 5 (Day 720) and the last visit of the study. Descriptive statistics were presented by visit and treatment group for baseline, post-treatment change from baseline, and the percent change from baseline. Analysis methods for repeated measurements were used to compare percent change from baseline between treatments.
In the main analysis of the primary endpoint for the REDUCE-IT trial, treatment was the only covariate employed in the stratified Cox proportional hazards model. Stratification variables included CV risk category at baseline (primary prevention cohort and secondary prevention cohort), use of ezetimibe at baseline (yes/no), and geographical region (Westernized, Eastern European, and Asia Pacific).
The model included treatment and any of the following variables, identified by a stepwise selection procedure: (1) sex; (2) age at baseline (<65 or ≥65 years); (3) race (white and non-white); (4) presence/absence of diabetes at baseline; (5) baseline LDL-C (by tertile); (6) baseline HDL-C (by tertile); (7) baseline non-HDL-C (by tertile); (8) baseline TG (by tertile); (9) baseline hsCRP (≤3 mg/Land >3 mg/L); (10) baseline apo B (by tertile); (11) baseline RLP-C (by tertile); (12) Hopkins calculated LDL-C at baseline (by tertile); (13) waist/height ratio at baseline; (14) waist circumference at baseline.
The SAS proportional hazard regression procedure was used to automatically conduct the stepwise selection of the important baseline covariates. The minimum p-value for the inclusion of the baseline covariate into the proportional hazard model was 0.05, and these selected baseline covariates with p<0.10 would remain in the final model as important baseline covariates after all baseline covariates were evaluated by the model. The HR, 95% CI, and p-value comparing the two treatment groups, and the HR, 95% CI, and p-value for adjusting each selected important baseline covariate in the final model were presented.
As an additional exploratory analysis, the relationships between post-baseline lipid values and treatment effects with the primary and key secondary endpoints were assessed by adding lipid values (at 4 months, 1 year, etc.) as time varying covariates in the Cox proportional hazards model. Diagnostic plots for the proportional hazard's assumption was evaluated.

[1] = Overall (with all selected covariates)
[2] = adjusting baseline covariate: Age at baseline (<65 or ≥65 years)
[3] = adjusting baseline covariate: Baseline hsCRP (≤3 mg/L or >3 mg/L)
[4] = adjusting baseline covariate: Baseline non-HDL-C (by tertile)
[5] = adjusting baseline covariate: Presence/absence of diabetes at baseline
[6] = adjusting baseline covariate: Sex
[7] = adjusting time varying covariate HDL-C (mg/dL)
[8] = adjusting time varying covariate LDL-C (Hopkins) (mg/dL)
[9] = adjusting time varying covariate LDL-C (ultracentrifugation) (mg/dL)
[10] = adjusting time varying covariate LDL-C derived (mg/dL)
[11] = adjusting time varying covariate RLP-C (mg/dL)
[12] = adjusting time varying covariate TG (mg/dL)
[13] = adjusting time varying covariate apo B (mg/dL)
[14] = adjusting time varying covariate hsCRP (mg/dL)

Structure (SMILES): CC/C=C\C/C=C\C/C=C\C/C=C\C/C=C\CCCC(=O)OCC [AMR101, eicosapentaenoic acid ethyl ester]
- Time to key secondary endpoint, HR (95% CI) AMR101/Placebo [1]: 0.730 (0.647-0.825)
- Time to primary endpoint, HR (95% CI) AMR101/Placebo [1]: 0.750 (0.680-0.828)
- Time to key secondary endpoint, HR (95% CI) AMR101/Placebo [2]: 0.739 (0.654-0.834)
- Time to primary endpoint, HR (95% CI) AMR101/Placebo [2]: 0.755 (0.684-0.833)
- Time to key secondary endpoint, HR (95% CI) AMR101/Placebo [3]: 0.731 (0.648-0.826)
- Time to primary endpoint, HR (95% CI) AMR101/Placebo [3]: 0.750 (0.679-0.828)
- Time to key secondary endpoint, HR (95% CI) AMR101/Placebo [4]: 0.738 (0.654-0.833)
- Time to primary endpoint, HR (95% CI) AMR101/Placebo [4]: 0.755 (0.684-0.833)
- Time to key secondary endpoint, HR (95% CI) AMR101/Placebo [5]: 0.731 (0.647-0.825)
- Time to primary endpoint, HR (95% CI) AMR101/Placebo [5]: 0.750 (0.679-0.827)
- Time to key secondary endpoint, HR (95% CI) AMR101/Placebo [6]: 0.734 (0.650-0.829)
- Time to primary endpoint, HR (95% CI) AMR101/Placebo [6]: 0.751 (0.680-0.829)
- Time to key secondary endpoint, HR (95% CI) for Treatment (AMR101 vs Placebo) [7]: 0.710 (0.629-0.802)
- Time to primary endpoint, HR (95% CI) for Treatment (AMR101 vs Placebo) [7]: 0.730 (0.661-0.806)
- Time to primary endpoint, HR (95% CI) for Treatment (AMR101 vs Placebo) (adjusting time varying covariate LDL-C (Friedewald) (mg/dL)): 0.760 (0.688-0.839)
- Time to key secondary endpoint, HR (95% CI) for Treatment (AMR101 vs Placebo) [8]: 0.761 (0.674-0.860)
- Time to primary endpoint, HR (95% CI) for Treatment (AMR101 vs Placebo) [8]: 0.772 (0.699-0.852)
- Time to key secondary endpoint, HR (95% CI) for Treatment (AMR101 vs Placebo) [9]: 0.737 (0.652-0.834)
- Time to primary endpoint, HR (95% CI) for Treatment (AMR101 vs Placebo) [9]: 0.759 (0.687-0.839)
- Time to key secondary endpoint, HR (95% CI) for Treatment (AMR101 vs Placebo) [10]: 0.740 (0.655-0.836)
- Time to primary endpoint, HR (95% CI) for Treatment (AMR101 vs Placebo) [10]: 0.752 (0.681-0.830)
- Time to key secondary endpoint, HR (95% CI) for Treatment (AMR101 vs Placebo) [11]: 0.768 (0.679-0.867)
- Time to primary endpoint, HR (95% CI) for Treatment (AMR101 vs Placebo) [11]: 0.784 (0.709-0.866)
- Time to key secondary endpoint, HR (95% CI) for Treatment (AMR101 vs Placebo) [12]: 0.754 (0.668-0.851)
- Time to primary endpoint, HR (95% CI) for Treatment (AMR101 vs Placebo) [12]: 0.772 (0.700-0.853)
- Time to key secondary endpoint, HR (95% CI) for Treatment (AMR101 vs Placebo) [13]: 0.752 (0.665-0.850)
- Time to primary endpoint, HR (95% CI) for Treatment (AMR101 vs Placebo) [13]: 0.762 (0.690-0.842)
- Time to key secondary endpoint, HR (95% CI) for Treatment (AMR101 vs Placebo) [14]: 0.745 (0.660-0.841)
- Time to primary endpoint, HR (95% CI) for Treatment (AMR101 vs Placebo) [14]: 0.758 (0.686-0.836)
- Time to key secondary endpoint, HR (95% CI) for Treatment (AMR101 vs Placebo) (adjusting time varying covariate non-HDL-C (mg/dL)): 0.773 (0.684-0.874)
